Laboratory results taken from publication PMC3809513, “Imidazopyridazines as potent inhibitors of Plasmodium falciparum calcium-dependent protein kinase 1 (PfCDPK1): Preparation and evaluation of pyrazole linked analogues^” (Bioorganic & Medicinal Chemistry Letters, 2013).
Where two headings read alike, the source gives them in different places.

Key:
[1] = test system: P. falciparum; parameters: method as in PMID 23570789; details: reference compound 2; read-out: Pf EC50; cited from earlier work
[2] = parameters: method as in PMID 23570789; details: % remaining after 30 min incubation with human liver microsomes; cited from earlier work
[3] = parameters: method as in PMID 23570789; details: % remaining after 30 min incubation with mouse liver microsomes; cited from earlier work
[4] = target: PfCDPK1 (Plasmodium falciparum, UniProt P62344); test: PfCDPK1 enzyme inhibition; assay type: biochemical; details: for LLE: LLE = pIC50 − m Log D
PfCDPK1, sequence (P62344 whole entry): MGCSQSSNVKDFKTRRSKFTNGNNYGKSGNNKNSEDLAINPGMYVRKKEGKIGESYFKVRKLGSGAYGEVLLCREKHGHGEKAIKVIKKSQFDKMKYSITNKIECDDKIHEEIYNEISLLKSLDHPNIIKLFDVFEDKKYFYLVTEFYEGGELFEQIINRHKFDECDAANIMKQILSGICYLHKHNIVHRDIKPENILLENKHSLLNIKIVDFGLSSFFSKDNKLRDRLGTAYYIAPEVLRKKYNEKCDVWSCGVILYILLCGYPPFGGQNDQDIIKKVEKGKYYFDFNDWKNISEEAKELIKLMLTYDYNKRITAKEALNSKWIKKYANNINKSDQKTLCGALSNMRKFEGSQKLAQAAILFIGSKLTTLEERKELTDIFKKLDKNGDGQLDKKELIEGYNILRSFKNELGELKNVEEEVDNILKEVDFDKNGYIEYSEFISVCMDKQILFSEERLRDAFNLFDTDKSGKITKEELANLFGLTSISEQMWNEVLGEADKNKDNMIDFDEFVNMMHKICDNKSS

[5] = test system: P. falciparum; test: P. falciparum parasite growth assay (FACS, hydroethidine); assay type: cell-based, Plasmodium falciparum; details: in vitro parasite growth, compounds added 24 h post-invasion, cells recovered 48 h later; for EC50: Plasmodium falciparum, read-out: Pf EC50
Procedure: [12] P. falciparum EC50 values were measured using an in vitro model of malaria parasite growth. Compounds were diluted into 2% DMSO and added to parasites 24 h post-invasion in a 96-well plate and incubated under static conditions. Cells were recovered 48 h later and processed for FACS analysis using hydroethidine to stain parasite DNA. Data was acquired using a Guava easyCyte Plus flow cytometer with ExpressPro software. Growth inhibition was calculated using the following formula: % growth inhibition = (1 − [parasitaemia of culture/parasitaemia of control culture]) × 100.

[6] = LogD shake flask (octanol/PBS); assay type: physicochemical; details: measured log D
Procedure: LogD measurements were carried out using the shake flask method. Compound was diluted from 10 mM DMSO stock solution into an eppendorf containing equal amounts of octanol and phosphate buffered saline (PBS) to give a final concentration of 100 μM. The tubes were shaken for 12 hours, centrifuged at 10000 rpm for 10 minutes and samples taken from the octanol and PBS layers. The samples from both layers were analysed in triplicate by LC-MS/MS (Agilent Technologies G6410 series, triple quadrupole with MM-ESI ion source) using optimised multiple reaction monitoring (MRM) scans and a standard column gradient on an Acquity UPLC BEH C8 1.7 μm column, running acetonitrile and water with 0.05% Acetic Acid as the mobile phase. The ratios of areas of the peaks were used to calculate the LogD in accordance with the equation: LogD = Log10(Area-TL/Area BL)

[7] = Microsomal turnover, human liver microsomes; assay type: in vitro ADME; details: % remaining after 30 min, 1 μM compound
Procedure: Microsomal turnover data was obtained using either human liver microsomes (HLM) or mouse liver microsomes (MLM) obtained from BD Biosciences. The compounds are pre-incubated at 37 °C for 5 minutes with the microsomes and the reaction was initiated by adding an equal volume of NADPH generating solution, also obtained from BD Biosciences. The final compound concentration in the incubation is 1 μM, and the microsomal protein concentration is 0.5 mg/ml for HLM and 0.2 mg/ml for MLM. A sample is taken at t=0 and quenched with 2x volume of ice-cold methanol containing an internal standard reference compound (carbamazepine). […] The samples were centrifuged at 10000 rpm for 10 minutes and the supernatant taken for analysis in triplicate by LC-MS/MS (Agilent Technologies G6410 series, triple quadrupole with MM-ESI ion source) using optimised multiple reaction monitoring (MRM) scans and a standard column gradient on an Acquity UPLC BEH C8 1.7μm column, running acetonitrile and water with 0.05% acetic acid as the mobile phase. […] Verapamil is used as the standard compound for this assay.

[8] = Microsomal turnover, mouse liver microsomes; assay type: in vitro ADME; details: % remaining after 30 min, 1 μM compound
Procedure: Microsomal turnover data was obtained using either human liver microsomes (HLM) or mouse liver microsomes (MLM) obtained from BD Biosciences. The compounds are pre-incubated at 37 °C for 5 minutes with the microsomes and the reaction was initiated by adding an equal volume of NADPH generating solution, also obtained from BD Biosciences. The final compound concentration in the incubation is 1 μM, and the microsomal protein concentration is 0.5 mg/ml for HLM and 0.2 mg/ml for MLM. A sample is taken at t=0 and quenched with 2x volume of ice-cold methanol containing an internal standard reference compound (carbamazepine). The reaction is agitated at 37 °C for 40 minutes (HLM) and 30 minutes (MLM) when a further sample was taken and quenched in an identical fashion. The samples were centrifuged at 10000 rpm for 10 minutes and the supernatant taken for analysis in triplicate by LC-MS/MS (Agilent Technologies G6410 series, triple quadrupole with MM-ESI ion source) using optimised multiple reaction monitoring (MRM) scans and a standard column gradient on an Acquity UPLC BEH C8 1.7μm column, running acetonitrile and water with 0.05% acetic acid as the mobile phase. The % turnover is obtained by calculating the percentage difference of the peak areas, normalised to the internal standard, at t=0 and t=40 (for human) or t=30 (for mouse). Verapamil is used as the standard compound for this assay.

[9] = PAMPA passive permeability; assay type: in vitro ADME; details: 5 hours at room temperature
Procedure: PAMPA assays were carried out using a 96 well BD Biosciences pre-coated PAMPA plate with 0.4 μm polyvinylidene fluoride filter plate, precoated with structured layers of phospholipids. […] The compound solution was placed in the lower ‘Donor’ well of the plate and the upper ‘Acceptor’ well of the plate was filled with PBS:DMSO 98:2 buffer containing no compound following which the plates was assembled then incubated for 5 hours at room temperature. After incubation the Donor and Acceptor wells were sampled into flat UV bottomed plates and a six fold 1:2 dilution series created for each compound starting at the appropriate top concentration for each compound. The UV absorbance for these solutions was read across 230-400 nm at 1 nm intervals using a TECAN Safire II plate reader and a suitable UV wavelength chosen around the UV maximum of each compound. This was used to calculate the concentration in the Donor and Acceptor wells for each compound. The compound permeability Papp (nm s^-1) and % mass retention was then calculated for each compound in accordance with the following equations:
Ceq = [CD(t)* VD+ CA(t)*VA]/(VD+VA)
% mass retention = 1 – [CD(t)*VD + CA(t)*VA]/(C0*VD)]
A = Filter Area, VD = Donor Well Volume, VA = Acceptor Well Volume, t = incubation time (secs), CA(t) = Acceptor concentration at time t, CD(t) = Donor concentration at time t, C0 = Initial Donor concentration
No result was reported for compounds where % mass retention exceeded 50%.

[10] = target: 73-member human kinase panel; test: Kinase selectivity profiling against human kinase panel; assay type: biochemical; details: 73-member human kinase panel at 1 μM concentration; green <50%, orange 50–80%, red >80% inhibition in Figure 2
From the text: They also display key ADME properties which serve to complement analogues such as 2, where a 6-membered aryl or heteroaryl ring linker had been used (Table 5). As expected, the pyrazole linker has contributed to lowering log D in these new analogues, and perhaps more importantly has promoted a significant increase in ligand lipophilic efficiency (LLE)[22] as compared to compounds such as 2. This parameter is well-known to offer a useful guide to potency and lipophilicity during the progression of chemical series from hits towards leads. In addition, we observed promising kinase selectivity profiles for key examples on screening against a human kinase panel at 1 μM concentration,[23] as shown in Figure 2. The aryl pyrazoles described here thus represent a useful additional possibility for progressing towards alternative early lead compounds with good development characteristics.
[23] Kinase selectivity profiling was carried out by the National Centre for Protein Kinase Profiling at the MRC Protein Phosphorylation Unit (University of Dundee, UK).

SMILES | EC50 [1] [nM] | HLM % rem [2] [%] | MLM % rem [3] [%] | IC50 [4] [nM] | LLE [4] | LE (ligand efficiency) ([4]; from PfCDPK1 potency) | EC50 [5] [nM] | Pf EC50 [5] | logD at 12 h, 100 µM [6] | HLM % rem [7] [%] | MLM % rem [8] [%] | Papp at 5 h, up to 200 µM [9] [×10⁻⁶ cm/s] | Kinases inhibited [10]
CC(C)CCNc1ccc(-c2cnc3ccc(NC4CCN(C)CC4)nn23)cn1 [Compound 2] | 400 | 63 | 85 |  |  |  |  |  |  |  |  |  | 
Cc1nn(-c2ccccc2)cc1-c1cnc2ccc(NC3CCN(C)CC3)nn12 [Compound 11] |  |  |  | 3610 |  |  |  |  |  |  |  |  | 
c1ccc(-n2cc(-c3cnc4ccc(NC5CCNCC5)nn34)cn2)cc1 [Compound 12] |  |  |  | 43 | 4.5 | 0.37 | 985 | sub-micromolar | 1.8 | 81 | 74 | 2.3 | PRK2, PKD1, MSK1, MNK1, SmMLCK, CHK1, CHK2, Aurora B, NUAK1, PIM1, GCK, MINK1, MLK1, MLK3, IRAK4, SRC, LCK, YES1, EPH-A2, FGF-R1, HER4, VEG-FR
CN1CCC(Nc2ccc3ncc(-c4cnn(-c5ccccc5F)c4)n3n2)CC1 [Compound 16] |  |  |  | 76 |  |  | 567 |  | 3.4 |  |  |  | 
CN1CCC(Nc2ccc3ncc(-c4cnn(-c5ncc(F)cn5)c4)n3n2)CC1 [Compound 25] |  |  |  | 486 |  |  |  |  | 2 |  |  |  | 
CN1CCC(Nc2ccc3ncc(-c4cnn(-c5cnccn5)c4)n3n2)CC1 [Compound 26] |  |  |  | 31 |  |  | 366 |  | 2.2 | 66 | 51 | 0.05 | 
Clc1ccc2ncc(Br)n2n1 [Compound 27] |  |  |  |  |  |  |  |  |  |  |  |  | RSK1, PRK2, CHK1, MELK, NUAK 1, PIM1, MST2, GCK, MINK1, MLK1, MLK3, IRAK4, SRC, LCK, CSK, YES1, BTK, EPH-A2, EPH-B3, HER4, VEG-FR
N[C@H]1CC[C@H](Nc2ccc3ncc(-c4cnn(-c5ccc(F)cc5)c4)n3n2)CC1 [Compound 29] |  |  |  | 56 | 5.3 |  | 262 |  | 1.9 | 80 | 84 | 4.3 | 
Fc1ccc(-n2cc(-c3cnc4ccc(N[C@H]5CC[C@H](N6CCCC6)CC5)nn34)cn2)cc1 [Compound 30] |  |  |  | 129 |  |  | 373 |  | 2.8 | 42 | 66 | 10.4 | 
CN1CCC(Oc2ccc3ncc(-c4cnn(-c5ccc(F)cc5)c4)n3n2)CC1 [Compound 31] |  |  |  | 184 |  |  |  |  | 2.6 | 61 | 38 | 21.4 | 
Fc1ccc(-n2cc(-c3cnn4ccc(C5CCCNC5)nc34)cn2)cc1 (centres unmarked) [Compound 34] |  |  |  | 176 |  |  | 3830 |  | 1.4 | 80 | 56 | 21.7 | 
CN1CCCC(c2ccn3ncc(-c4cnn(-c5ccc(F)cc5)c4)c3n2)C1 (centres unmarked) [Compound 35] |  |  |  | 378 |  |  | 3540 |  | 2.5 | 55 | 33 |  | 
CN1CCC(Nc2ccc3ncc(-c4cnn(-c5ccc(C#N)cc5)c4)n3n2)CC1 [Compound 36] |  |  |  | 854 |  |  |  |  | 1.9 | 79 | 59 |  | RSK1, ROCK2, PRK2, MNK1, MNK2, SmMLCK, PHK, CHK1, MARK3, BRSK2, MELK, NUAK1, CK1, CK2, DRYK1A, PIM1, PAK4, MST2, GCK, MINK1, MLK1, MLK3, IRAK4, SRC, YES1, BTK, EPH-A2, HER4, VEG-FR
CN1CCC(Nc2ccc3ncc(-c4cnn(-c5cccc(C#N)c5)c4)n3n2)CC1 [Compound 37] |  |  |  | 189 |  |  | 255 |  | 2.7 | 70 | 59 |  | 
